Results published in ChEMBL document CHEMBL1201862, “PubChem BioAssay data set” (2004).
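Cells were grown in 96-well plates and exposed to each compound for 48 hours at five concentrations; endpoints were interpolated linearly between bracketing concentrations, or set to the highest concentration if not reached. At the GI50, growth is halved.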 Active and inactive are the calls of the source. Cut-off read from the data, not from the text of the source: active = GI50 up to about 1.1 µM and inactive = higher.

Experiments:
Test in all cases: NCI anticancer screen, dose series, 48 h
EKVX = system: EKVX
KM-20L2 = system: KM-20L2
HOP-92 = system: HOP-92
IGROV-1 = system: IGROV-1
XF498 = system: XF498
HT-29 = system: HT-29
OVCAR-5 = system: OVCAR-5
SNB-75 = system: SNB-75
HCC 2998 = system: HCC 2998
SF-295 = system: SF-295
SK-MEL-28 = system: SK-MEL-28
NCI-H522 = system: NCI-H522
HOP-18 = system: HOP-18
ACHN = system: ACHN
SW-620 = system: SW-620
K562 = system: K562
KM12 = system: KM12
M14 = system: M14
NCI-H23 = system: NCI-H23
OVCAR-4 = system: OVCAR-4
LOX IMVI = system: LOX IMVI
OVCAR-3 = system: OVCAR-3
UACC-62 = system: UACC-62
SF-539 = system: SF-539
U-251 = system: U-251
MOLT-4 = system: MOLT-4
SR = system: SR
SK-OV-3 = system: SK-OV-3
LXFL 529 = system: LXFL 529
Malme-3M = system: Malme-3M
TK-10 = system: TK-10
SNB-78 = system: SNB-78
HL-60 = system: HL-60
OVCAR-8 = system: OVCAR-8
UO-31 = system: UO-31
NCI-H460 = system: NCI-H460
A549 = system: A549
M19-MEL = system: M19-MEL
SN12C = system: SN12C
HCT-15 = system: HCT-15
CCRF-CEM = system: CCRF-CEM
DLD-1 = system: DLD-1
RXF 393 = system: RXF 393
SK-MEL-5 = system: SK-MEL-5
SK-MEL-2 = system: SK-MEL-2
HOP-62 = system: HOP-62
UACC-257 = system: UACC-257
COLO 205 = system: COLO 205
SNB-19 = system: SNB-19
DMS-273 = system: DMS-273
786-0 = system: 786-0
SF-268 = system: SF-268
RPMI-8226 = system: RPMI-8226
NCI-H226 = system: NCI-H226
HCT-116 = system: HCT-116
CAKI-1 = system: CAKI-1
A498 = system: A498
DMS-114 = system: DMS-114

OCc1nnn2c1CCC2
GI50 (EKVX): > 100 µM (inactive) | GI50 (KM-20L2): > 100 µM (inactive) | GI50 (HOP-92): > 100 µM (inactive) | GI50 (IGROV-1): > 100 µM (inactive) | GI50 (XF498): > 100 µM (inactive) | GI50 (HT-29): > 100 µM (inactive) | GI50 (OVCAR-5): > 100 µM (inactive) | GI50 (SNB-75): > 100 µM (inactive) | GI50 (HCC 2998): > 100 µM (inactive) | GI50 (SF-295): > 100 µM (inactive) | GI50 (SK-MEL-28): > 100 µM (inactive) | GI50 (NCI-H522): > 100 µM (inactive) | GI50 (HOP-18): > 100 µM (inactive) | GI50 (ACHN): > 100 µM (inactive) | GI50 (SW-620): > 100 µM (inactive) | GI50 (K562): > 100 µM (inactive) | GI50 (KM12): > 100 µM (inactive) | GI50 (M14): > 100 µM (inactive) | GI50 (NCI-H23): > 100 µM (inactive) | GI50 (OVCAR-4): 76 µM (inactive) | GI50 (LOX IMVI): > 100 µM (inactive) | GI50 (OVCAR-3): > 100 µM (inactive) | GI50 (UACC-62): > 100 µM (inactive) | GI50 (SF-539): > 100 µM (inactive) | GI50 (U-251): > 100 µM (inactive) | GI50 (MOLT-4): > 100 µM (inactive) | GI50 (SR): > 100 µM (inactive) | GI50 (SK-OV-3): > 100 µM (inactive) | GI50 (LXFL 529): > 100 µM (inactive) | GI50 (Malme-3M): > 100 µM (inactive) | GI50 (TK-10): > 100 µM (inactive) | GI50 (SNB-78): > 100 µM (inactive) | GI50 (HL-60): > 100 µM (inactive) | GI50 (OVCAR-8): > 100 µM (inactive) | GI50 (UO-31): > 100 µM (inactive) | GI50 (NCI-H460): > 100 µM (inactive) | GI50 (A549): > 100 µM (inactive) | GI50 (M19-MEL): > 100 µM (inactive) | GI50 (SN12C): > 100 µM (inactive) | GI50 (HCT-15): > 100 µM | GI50 (CCRF-CEM): > 100 µM (inactive) | GI50 (DLD-1): > 100 µM (inactive) | GI50 (RXF 393): > 100 µM (inactive) | GI50 (SK-MEL-5): > 100 µM (inactive) | GI50 (SK-MEL-2): > 100 µM (inactive) | GI50 (HOP-62): > 100 µM (inactive) | GI50 (UACC-257): > 100 µM (inactive)

CC(=O)OC12C(C)=C(C)C(=O)N1c1ccccc1N2C(C)=O (stereo unspecified)
GI50 (EKVX): > 100 µM (inactive) | GI50 (KM-20L2): > 100 µM (inactive) | GI50 (HOP-92): > 100 µM (inactive) | GI50 (IGROV-1): > 100 µM (inactive) | GI50 (COLO 205): > 100 µM (inactive) | GI50 (SNB-19): > 100 µM (inactive) | GI50 (XF498): > 100 µM (inactive) | GI50 (HT-29): > 100 µM (inactive) | GI50 (OVCAR-5): > 100 µM (inactive) | GI50 (SNB-75): > 100 µM (inactive) | GI50 (DMS-273): > 100 µM (inactive) | GI50 (HCC 2998): > 100 µM (inactive) | GI50 (SF-295): > 100 µM (inactive) | GI50 (SK-MEL-28): 33.4 µM (inactive) | GI50 (NCI-H522): > 100 µM (inactive) | GI50 (HOP-18): > 100 µM (inactive) | GI50 (786-0): > 100 µM (inactive) | GI50 (ACHN): > 100 µM (inactive) | GI50 (SW-620): > 100 µM (inactive) | GI50 (K562): > 100 µM (inactive) | GI50 (KM12): > 100 µM (inactive) | GI50 (M14): > 100 µM (inactive) | GI50 (SF-268): > 100 µM (inactive) | GI50 (NCI-H23): > 100 µM (inactive) | GI50 (OVCAR-4): > 100 µM (inactive) | GI50 (LOX IMVI): > 100 µM (inactive) | GI50 (OVCAR-3): > 100 µM (inactive) | GI50 (UACC-62): > 100 µM (inactive) | GI50 (U-251): > 100 µM (inactive) | GI50 (MOLT-4): > 100 µM (inactive) | GI50 (SR): > 100 µM (inactive) | GI50 (SK-OV-3): > 100 µM (inactive) | GI50 (RPMI-8226): > 100 µM (inactive) | GI50 (LXFL 529): > 100 µM (inactive) | GI50 (NCI-H226): > 100 µM (inactive) | GI50 (TK-10): > 100 µM (inactive) | GI50 (SNB-78): > 100 µM (inactive) | GI50 (HL-60): > 100 µM (inactive) | GI50 (OVCAR-8): > 100 µM (inactive) | GI50 (UO-31): > 100 µM (inactive) | GI50 (NCI-H460): > 100 µM (inactive) | GI50 (A549): > 100 µM (inactive) | GI50 (M19-MEL): > 100 µM (inactive) | GI50 (HCT-15): > 100 µM | GI50 (HCT-116): > 100 µM (inactive) | GI50 (CCRF-CEM): > 100 µM (inactive) | GI50 (CAKI-1): > 100 µM (inactive) | GI50 (RXF 393): > 100 µM (inactive) | GI50 (SK-MEL-5): > 100 µM (inactive) | GI50 (SK-MEL-2): > 100 µM (inactive) | GI50 (HOP-62): > 100 µM (inactive) | GI50 (UACC-257): > 100 µM (inactive)

CC(=O)OCSc1ncnc2c1ncn2CN1CCOCC1
GI50 (A498): > 100 µM (inactive) | GI50 (EKVX): > 100 µM (inactive) | GI50 (KM-20L2): 7.59 µM (inactive) | GI50 (HOP-92): 1.08 µM (active) | GI50 (IGROV-1): 52.5 µM (inactive) | GI50 (COLO 205): 18.8 µM (inactive) | GI50 (SNB-19): > 100 µM (inactive) | GI50 (HT-29): 13.9 µM (inactive) | GI50 (DMS-114): 6.53 µM (inactive) | GI50 (OVCAR-5): 18.5 µM (inactive) | GI50 (SNB-75): 13.2 µM (inactive) | GI50 (DMS-273): 5.11 µM (inactive) | GI50 (HCC 2998): 6.46 µM (inactive) | GI50 (SF-295): 49.9 µM (inactive) | GI50 (SK-MEL-28): > 100 µM (inactive) | GI50 (NCI-H522): 3.27 µM (inactive) | GI50 (HOP-18): 40.1 µM (inactive) | GI50 (786-0): 7.91 µM (inactive) | GI50 (ACHN): 33 µM (inactive) | GI50 (SW-620): 28.8 µM (inactive) | GI50 (K562): 0.841 µM (active) | GI50 (KM12): 51.1 µM (inactive) | GI50 (M14): 2.25 µM (inactive) | GI50 (SF-268): 31.3 µM (inactive) | GI50 (NCI-H23): 11.9 µM (inactive) | GI50 (OVCAR-4): 23 µM (inactive) | GI50 (LOX IMVI): 2.03 µM (inactive) | GI50 (OVCAR-3): 7.23 µM (inactive) | GI50 (UACC-62): 4.81 µM (inactive) | GI50 (SF-539): 6.82 µM (inactive) | GI50 (U-251): 47.8 µM (inactive) | GI50 (MOLT-4): 4.12 µM (inactive) | GI50 (SR): 6.14 µM (inactive) | GI50 (SK-OV-3): 2.01 µM (inactive) | GI50 (RPMI-8226): 4.44 µM (inactive) | GI50 (LXFL 529): > 100 µM (inactive) | GI50 (Malme-3M): 24.9 µM (inactive) | GI50 (NCI-H226): > 100 µM (inactive) | GI50 (TK-10): 7.05 µM (inactive) | GI50 (SNB-78): > 100 µM (inactive) | GI50 (HL-60): 6.22 µM (inactive) | GI50 (OVCAR-8): 28.9 µM (inactive) | GI50 (UO-31): 8.38 µM (inactive) | GI50 (NCI-H460): 18.2 µM (inactive) | GI50 (A549): 44.6 µM (inactive) | GI50 (M19-MEL): 59 µM (inactive) | GI50 (SN12C): 60.1 µM (inactive) | GI50 (HCT-15): 21.1 µM | GI50 (HCT-116): 14.4 µM (inactive) | GI50 (CCRF-CEM): 1.98 µM (inactive) | GI50 (DLD-1): 6.55 µM (inactive) | GI50 (CAKI-1): 6.37 µM (inactive) | GI50 (RXF 393): 14.8 µM (inactive) | GI50 (SK-MEL-5): 49.4 µM (inactive) | GI50 (SK-MEL-2): > 100 µM (inactive) | GI50 (HOP-62): 10 µM (inactive) | GI50 (UACC-257): 53.5 µM (inactive)
